Results taken from publication PMC2741501 (Molecular cell, 2009).
pEC50, pIC50: −log10 of the molar value. Where two headings read alike, the source gives them in different places.

Tests used:
[1] = system: CviR binding to the vioA promoter; design: species or system Chromobacterium violaceum; conditions: for DNA binding of purified CviR loaded with the molecule: vioA promoter probe, CviR 100-500 nM
[2] = target: T1, CviR (Chromobacterium violaceum, UniProt D3W065); conditions: for maximal gfp expression level compared with C6-HSL / pEC50: E. coli vioA-gfp; for pEC50: read-out: EC50, CviR activation of gfp expression; for induction of gfp expression through CviR: even at 100 μM
[3] = system: C. violaceum killing of C. elegans; test: C. elegans lifespan assay on C. violaceum lawns; assay type: in vivo, Caenorhabditis elegans
[4] = target: T1, CviR; assay type: cell-based; conditions: read-out: IC50, inhibition of CviR-dependent vioA-gfp expression; constant 500 nM C6-HSL
[5] = target: V. harveyi LuxN (Vibrio campbellii, UniProt A7MRY4); assay type: cell-based; conditions: read-out: IC50, inhibition of bioluminescence
[6] = system: CviR; conditions: molecule added at 50 μM, E. coli
[7] = V. harveyi BB960 (luxPQ mutant)

T1 sequence (D3W065 1-265): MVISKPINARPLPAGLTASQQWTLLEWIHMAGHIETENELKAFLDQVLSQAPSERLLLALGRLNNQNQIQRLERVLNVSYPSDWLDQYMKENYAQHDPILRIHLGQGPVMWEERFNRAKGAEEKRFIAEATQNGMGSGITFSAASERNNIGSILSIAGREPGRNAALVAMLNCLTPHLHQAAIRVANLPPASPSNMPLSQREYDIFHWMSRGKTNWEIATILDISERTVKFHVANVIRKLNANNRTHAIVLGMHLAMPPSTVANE
Sequence of V. harveyi LuxN (A7MRY4 whole entry): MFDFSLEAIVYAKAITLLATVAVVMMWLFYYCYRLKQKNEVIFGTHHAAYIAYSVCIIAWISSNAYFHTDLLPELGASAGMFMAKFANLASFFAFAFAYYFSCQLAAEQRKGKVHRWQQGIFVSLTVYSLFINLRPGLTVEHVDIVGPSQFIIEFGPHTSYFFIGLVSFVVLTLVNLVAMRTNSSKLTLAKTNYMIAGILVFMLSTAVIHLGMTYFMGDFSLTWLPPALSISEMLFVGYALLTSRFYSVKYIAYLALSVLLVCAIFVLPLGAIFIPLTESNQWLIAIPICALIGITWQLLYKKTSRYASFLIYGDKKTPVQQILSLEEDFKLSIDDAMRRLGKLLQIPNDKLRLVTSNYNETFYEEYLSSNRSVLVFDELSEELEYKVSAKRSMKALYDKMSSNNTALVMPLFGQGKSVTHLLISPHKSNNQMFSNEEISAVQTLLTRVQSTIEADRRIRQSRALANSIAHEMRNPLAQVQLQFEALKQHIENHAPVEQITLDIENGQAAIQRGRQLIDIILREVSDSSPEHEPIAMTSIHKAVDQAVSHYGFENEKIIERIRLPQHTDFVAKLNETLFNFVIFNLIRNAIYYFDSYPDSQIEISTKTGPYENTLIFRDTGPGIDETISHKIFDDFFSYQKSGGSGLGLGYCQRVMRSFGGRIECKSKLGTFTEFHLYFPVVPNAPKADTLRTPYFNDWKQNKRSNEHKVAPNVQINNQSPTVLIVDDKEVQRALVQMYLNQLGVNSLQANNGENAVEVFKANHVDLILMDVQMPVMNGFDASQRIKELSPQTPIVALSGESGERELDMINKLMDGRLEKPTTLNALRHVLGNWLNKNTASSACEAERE

Row | Molecule | DNA binding of purified CviR loaded with the molecule [1] | pEC50 [2] | pIC50 [4] | induction of gfp expression through CviR [2] | other results
1 | CCCCCCCC(=O)N[C@H]1CCOC1=O [C8-HSL] | bound DNA with similar affinity to CviR loaded with C6-HSL | 7.52 | – | – | maximal gfp expression level compared with C6-HSL [2]: only half of the maximal gfp expression
2 | CCCCCC(=O)N[C@H]1CCOC1=O [C6-HSL] | binds DNA with high affinity | 7.12 | – | – | DNA probe shift of CL loaded CviR on addition of C6-HSL ([1]; 500 nM CviR, 1 μM C6-HSL): modest shift of the DNA probe; C. elegans median lifespan ([3]; C. violaceum cviI mutant, C6-HSL 2 μM): 4 days
3 | Chlorolactone [CL] | no ability to bind DNA | – | 6.42 | – | DNA binding of C6-HSL loaded CviR on addition of antagonist ([1]; 500 nM CviR, antagonist 0-10 μM): DNA binding decreased in a dose dependent manner; pIC50 [5, 7]: 4.85; pIC50 ([5]; V. harveyi JMH624 + 20 nM AHL): 6.06; pIC50 ([5]; wild type V. harveyi BB120): 4.40; C. elegans median lifespan ([3]; wild type C. violaceum, CL 20 μM, two days without antagonist): seven; CviR folding and solubility when expressed in presence of molecule [6]: promoted CviR folding and solubility
4 | CCCC(=O)N[C@H]1CCOC1=O [C4-HSL] | – | 4.92 | – | – | maximal gfp expression level compared with C6-HSL [2]: can induce maximal gfp expression
5 | CCCCCCCCCCCCCC(=O)N[C@H]1CCOC1=O [C14-HSL] | no ability to bind DNA | – | 6.57 | do not induce gfp expression | –
6 | Chloro-thiolactone [CTL] | no ability to bind DNA | – | 5.96 | – | pIC50 [5, 7]: 4.55; pIC50 ([5]; wild type V. harveyi BB120): 3.82; CviR folding and solubility when expressed in presence of molecule [6]: promoted CviR folding and solubility
7 | CCCCCCCCCCCC(=O)N[C@H]1CCOC1=O [C12-HSL] | no ability to bind DNA | – | 6.31 | do not induce gfp expression | –
8 | CCCCCCCCCC(=O)N[C@H]1CCOC1=O [C10-HSL] | does not abolish DNA binding | – | 6.68 | do not induce gfp expression | –
